Experimental data: PubChem BioAssay (NCI)
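Five compound concentrations were applied to cells in 96-well plates for 48 hours; endpoints were derived by simple linear interpolation of the resulting dose-response curve. TGI marks complete inhibition of growth.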

Assays:
Experiment in all cases: growth of human tumour cells (NCI), 48 h
A549 NSCLC = tested on: A549 NSCLC
OVCAR-3 ovarian = tested on: OVCAR-3 ovarian
OVCAR-8 ovarian = tested on: OVCAR-8 ovarian
U251 CNS = tested on: U251 CNS
SK-MEL-2 melanoma = tested on: SK-MEL-2 melanoma
SNB-75 CNS = tested on: SNB-75 CNS
SW-620 colon = tested on: SW-620 colon
K-562 leukemia = tested on: K-562 leukemia
MCF7 breast = tested on: MCF7 breast
LOX IMVI melanoma = tested on: LOX IMVI melanoma
MDA-MB-231 breast = tested on: MDA-MB-231 breast
HOP-92 NSCLC = tested on: HOP-92 NSCLC
NCI/ADR-RES ovarian = tested on: NCI/ADR-RES ovarian
HS 578T breast = tested on: HS 578T breast
ACHN renal = tested on: ACHN renal
HCC-2998 colon = tested on: HCC-2998 colon
MOLT-4 leukemia = tested on: MOLT-4 leukemia
MALME-3M melanoma = tested on: MALME-3M melanoma
SR leukemia = tested on: SR leukemia
RXF 393 renal = tested on: RXF 393 renal
CAKI-1 renal = tested on: CAKI-1 renal
TK-10 renal = tested on: TK-10 renal
DU-145 prostate = tested on: DU-145 prostate
SK-MEL-5 melanoma = tested on: SK-MEL-5 melanoma
SN12C renal = tested on: SN12C renal
CCRF-CEM leukemia = tested on: CCRF-CEM leukemia
NCI-H460 lung = tested on: NCI-H460 lung
NCI-H23 lung = tested on: NCI-H23 lung
NCI-H226 lung = tested on: NCI-H226 lung
UO-31 renal = tested on: UO-31 renal
PC-3 prostate = tested on: PC-3 prostate
SNB-19 CNS = tested on: SNB-19 CNS
BT-549 breast = tested on: BT-549 breast
786-0 renal = tested on: 786-0 renal
EKVX NSCLC = tested on: EKVX NSCLC
HL-60(TB) leukemia = tested on: HL-60(TB) leukemia
SF-295 CNS = tested on: SF-295 CNS
A498 renal = tested on: A498 renal
COLO 205 colon = tested on: COLO 205 colon
UACC-62 melanoma = tested on: UACC-62 melanoma
MDA-N = tested on: MDA-N
HT29 colon = tested on: HT29 colon
OVCAR-5 ovarian = tested on: OVCAR-5 ovarian
SF-539 CNS = tested on: SF-539 CNS
T-47D breast = tested on: T-47D breast
SK-MEL-28 melanoma = tested on: SK-MEL-28 melanoma
KM12 colon = tested on: KM12 colon
HOP-62 NSCLC = tested on: HOP-62 NSCLC
M14 melanoma = tested on: M14 melanoma
SF-268 CNS = tested on: SF-268 CNS
SK-OV-3 ovarian = tested on: SK-OV-3 ovarian
HCT-116 colon = tested on: HCT-116 colon
MDA-MB-435 = tested on: MDA-MB-435
OVCAR-4 ovarian = tested on: OVCAR-4 ovarian
HCT-15 colon = tested on: HCT-15 colon
UACC-257 melanoma = tested on: UACC-257 melanoma
NCI-H522 lung = tested on: NCI-H522 lung
RPMI-8226 leukemia = tested on: RPMI-8226 leukemia
IGROV1 ovarian = tested on: IGROV1 ovarian

Measured: TGI

CC(C)(Oc1ccc(Cl)cc1)C(=O)N(C(=O)N1CCN(c2ccccc2)CC1)c1ccccc1
not listed: RPMI-8226 leukemia | IGROV1 ovarian
> 100 µM: all other assays above

C=CCN1CN(C2CCCCC2)CSC1=S
17.8 µM: M14 melanoma
25.7 µM: SNB-75 CNS
18.4 µM: HS 578T breast
37.2 µM: EKVX NSCLC
15.7 µM: U251 CNS
43.6 µM: MDA-MB-231 breast
> 100 µM: SNB-19 CNS
27.1 µM: SN12C renal
24.3 µM: SW-620 colon
30 µM: UACC-257 melanoma
14.2 µM: SK-MEL-5 melanoma
> 95.5 µM: NCI/ADR-RES ovarian
8.04 µM: SF-539 CNS
> 81.5 µM: SF-295 CNS
17 µM: HT29 colon
26.9 µM: SK-MEL-2 melanoma
18.8 µM: 786-0 renal
28 µM: PC-3 prostate
40.8 µM: OVCAR-8 ovarian
30.4 µM: T-47D breast
21.1 µM: HCC-2998 colon
29.8 µM: NCI-H460 lung
12.2 µM: MDA-MB-435
18.7 µM: MALME-3M melanoma | RXF 393 renal
17.5 µM: ACHN renal
40.5 µM: NCI-H23 lung
29.6 µM: OVCAR-3 ovarian
17.1 µM: NCI-H522 lung
18 µM: KM12 colon
33.2 µM: A498 renal
> 26.4 µM: DU-145 prostate
24 µM: CAKI-1 renal | UO-31 renal
38.5 µM: SK-MEL-28 melanoma
14.3 µM: COLO 205 colon
27.4 µM: OVCAR-4 ovarian
21.7 µM: MDA-N
42.8 µM: NCI-H226 lung
> 34.4 µM: RPMI-8226 leukemia
22.1 µM: UACC-62 melanoma
0.655 µM: HL-60(TB) leukemia
3.15 µM: SR leukemia
> 44.1 µM: SK-OV-3 ovarian
> 45.7 µM: K-562 leukemia | HCT-15 colon
> 65.7 µM: A549 NSCLC
11.8 µM: SF-268 CNS
27.6 µM: OVCAR-5 ovarian
31.4 µM: IGROV1 ovarian
> 80.3 µM: BT-549 breast
25.1 µM: HCT-116 colon
> 40.7 µM: HOP-62 NSCLC
27 µM: LOX IMVI melanoma | TK-10 renal
> 22.5 µM: MOLT-4 leukemia
9.11 µM: MCF7 breast
39.3 µM: HOP-92 NSCLC

C=CCN1C(N)=C(C#N)C(C#N)(C#N)C1CCC (configuration not stated)
not listed: SK-MEL-28 melanoma
> 100 µM: all other assays above

COC(=O)/C(=N/NC(N)=O)C(C(=O)C(=O)Nc1ccc(C)cc1)c1nc2ccc(C(=O)c3ccccc3)cc2[nH]c1=O (configuration not stated)
89.6 µM: A498 renal
41.8 µM: SR leukemia
not listed: K-562 leukemia | RPMI-8226 leukemia
> 100 µM: all other assays above

O=C1OC(c2ccccc2)=N/C1=C\c1ccc(Cl)cc1
not listed: MALME-3M melanoma | SF-539 CNS
> 100 µM: all other assays above
